From patent US11992009B2, “Pesticide-containing soil disinfestation material without use of fumigant” (priority 2020, dated 2024)

How the values were obtained:
[1] = Lab soil pesticide release testing; assay type: physicochemical; details: for Pesticide content of fumigant-free soil disinfestation materials after set time on Soil: HPLC, LoQ 0.25 g/ha
Protocol: 200 g of dry soil is placed in rectangular thin layer chromatography chamber of 27×7×26 cm with lid and 20 g water is added to the soil. A 58 cm^2 of a polymer composite material sample is placed on the humid soil and weight down by a glass plate with a contact pressure of […] to simulate similar contact conditions with the soil as in the field after application of the polymer composite material like a plastic mulch film. […]
After the set contact time with the soil the film sample is removed, moisture is dabbed off, loose dirt is brushed off and then the sample is dried at 60 C in an oven for 10 min. After drying the sample is cut into 100 small squares (each about 7.5 by 7.5 mm), placed in a small glass flask with 5 gram of Methanol and a magnetic stir bar. The flask is capped, stirred for 4 hours and the methanolic solution is then analyzed by HPLC. The difference between the initial and remaining amount of pesticide is released to the soil during the set time. The lowest concentration of analyte that can be determined with an acceptable repeatability and trueness by the method is 0.025 mg/m^2=0.25 g/ha Limit of quantitation (LoQ).

[2] = cited from earlier work
[3] = Example 1 material, 0 days (initial content)
[4] = Example 1 material, 7 days on humid soil
[5] = Example 1 material, 14 days on humid soil
[6] = Example 1 material, 21 days on humid soil
[7] = Example 2 material, 0 days (initial content)
[8] = Example 2 material, 7 days on humid soil
[9] = Example 2 material, 14 days on humid soil
[10] = Example 2 material, 21 days on humid soil
[11] = Example 5 material, 0 days (initial content)
[12] = Example 5 material, 7 days on humid soil
[13] = Example 5 material, 14 days on humid soil
[14] = Example 5 material, 21 days on humid soil
[15] = Example 3 material, 0 days (initial content)
[16] = Example 3 material, 7 days on humid soil
[17] = Example 3 material, 14 days on humid soil
[18] = Example 3 material, 21 days on humid soil
[19] = Example 4 material, 0 days (initial content)
[20] = Example 4 material, 7 days on humid soil
[21] = Example 4 material, 14 days on humid soil
[22] = Example 4 material, 21 days on humid soil

Structure (SMILES) | Pesticide content of fumigant-free soil disinfestation materials after set time on Soil [1, 3] [g/ha] | Pesticide content of fumigant-free soil disinfestation materials after set time on Soil [1, 4] [g/ha] | Pesticide content of fumigant-free soil disinfestation materials after set time on Soil [1, 5] [g/ha] | Pesticide content of fumigant-free soil disinfestation materials after set time on Soil [1, 6] [g/ha] | Pesticide content of fumigant-free soil disinfestation materials after set time on Soil [1, 7] [g/ha] | Pesticide content of fumigant-free soil disinfestation materials after set time on Soil [1, 8] [g/ha] | Pesticide content of fumigant-free soil disinfestation materials after set time on Soil [1, 9] [g/ha] | Pesticide content of fumigant-free soil disinfestation materials after set time on Soil [1, 10] [g/ha] | Pesticide content of fumigant-free soil disinfestation materials after set time on Soil [1, 15] [g/ha] | Pesticide content of fumigant-free soil disinfestation materials after set time on Soil [1, 16] [g/ha] | Pesticide content of fumigant-free soil disinfestation materials after set time on Soil [1, 17] [g/ha] | Pesticide content of fumigant-free soil disinfestation materials after set time on Soil [1, 18] [g/ha] | Pesticide content of fumigant-free soil disinfestation materials after set time on Soil [1, 19] [g/ha] | Pesticide content of fumigant-free soil disinfestation materials after set time on Soil [1, 20] [g/ha] | Pesticide content of fumigant-free soil disinfestation materials after set time on Soil [1, 21] [g/ha] | Pesticide content of fumigant-free soil disinfestation materials after set time on Soil [1, 22] [g/ha] | further results
CO/C=C(/C(=O)OC)c1ccccc1Oc1cc(Oc2ccccc2C#N)ncn1 [Azoxystrobin] | 96 | 12 | 0 | 0 | 96 | 9 | 0 | 0 | – | – | – | – | – | – | – | – | Pesticide content of fumigant-free soil disinfestation materials after set time on Soil [1, 11]: 10 g/ha; Pesticide content of fumigant-free soil disinfestation materials after set time on Soil [1, 12]: 0 g/ha; Pesticide content of fumigant-free soil disinfestation materials after set time on Soil [1, 13]: 0 g/ha; Pesticide content of fumigant-free soil disinfestation materials after set time on Soil [1, 14]: 0 g/ha
Cc1nn(-c2cc(NS(C)(=O)=O)c(Cl)cc2Cl)c(=O)n1C(F)F [Sulfentrazone] | – | – | – | – | – | – | – | – | 202 | 15 | 0 | 0 | – | – | – | – | –
COC(=O)c1c(Cl)nn(C)c1S(=O)(=O)NC(=O)Nc1nc(OC)cc(OC)n1 [Halosulfuron-methyl] | 35 | 0 | 0 | 0 | 35 | 0 | 0 | 0 | 35 | 0 | 0 | 0 | – | – | – | – | Pesticide content of fumigant-free soil disinfestation materials after set time on Soil [1, 11]: 40 g/ha; Pesticide content of fumigant-free soil disinfestation materials after set time on Soil [1, 12]: 0 g/ha; Pesticide content of fumigant-free soil disinfestation materials after set time on Soil [1, 13]: 0 g/ha; Pesticide content of fumigant-free soil disinfestation materials after set time on Soil [1, 14]: 0 g/ha
COCC(=O)N(c1c(C)cccc1C)C(C)C(=O)OC (stereo not shown) [Metalaxyl] | 936 | 12 | 1 | 0 | 936 | 15 | 0 | 0 | – | – | – | – | – | – | – | – | –
CC(C)(C)C(O)(CCc1ccc(Cl)cc1)Cn1cncn1 (stereo not shown) [Tebuconazole] | – | – | – | – | – | – | – | – | 954 | 125 | 45 | 8 | – | – | – | – | –
O=C(NCCc1ncc(C(F)(F)F)cc1Cl)c1ccccc1C(F)(F)F [Fluopyram] | – | – | – | – | – | – | – | – | 91 | 0 | 0 | 0 | – | – | – | – | Pesticide content of fumigant-free soil disinfestation materials after set time on Soil [1, 11]: 350 g/ha; Pesticide content of fumigant-free soil disinfestation materials after set time on Soil [1, 12]: 14 g/ha; Pesticide content of fumigant-free soil disinfestation materials after set time on Soil [1, 13]: 0 g/ha; Pesticide content of fumigant-free soil disinfestation materials after set time on Soil [1, 14]: 0 g/ha
O=C(NCc1ncc(C(F)(F)F)cc1Cl)c1c(Cl)cccc1Cl [Fluopicolide] | – | – | – | – | – | – | – | – | – | – | – | – | 450 | 60 | 30 | 15 | –
CCc1cccc(C)c1N(C(=O)CCl)[C@@H](C)COC [s-metolachlor] | – | – | – | – | – | – | – | – | – | – | – | – | 800 | 5 | 0 | 0 | –
CNC(=O)O/N=C(\SC)C(=O)N(C)C [Oxamyl] | 1800 | 0 | 0 | 0 | 1800 | 0 | 0 | 0 | – | – | – | – | – | – | – | – | –
COCC(=O)N(c1c(C)cccc1C)[C@H](C)C(=O)OC [Mefenoxam] | – | – | – | – | – | – | – | – | – | – | – | – | 281 | 19 | 0 | 0 | –
O=S(=O)(CCC(F)=C(F)F)c1ncc(Cl)s1 [Fluensulfone] | – | – | – | – | – | – | – | – | – | – | – | – | 2807 | 0 | 0 | 0 | –
CON=C(C(=O)OC)c1ccccc1CON=C(C)c1cccc(C(F)(F)F)c1 [Trifloxystrobin] | – | – | – | – | – | – | – | – | 238 | 65 | 35 | 3 | – | – | – | – | –
CSc1nnc(C(C)(C)C)c(=O)n1N [Metribuzin] | – | – | – | – | – | – | – | – | – | – | – | – | 375 | 0 | 0 | 0 | –
N#Cc1c[nH]cc1-c1cccc2c1OC(F)(F)O2 [Fludioxonil] | 244 | 57 | 23 | 0 | 244 | 53 | 17 | 0 | – | – | – | – | – | – | – | – | Release from coated film in lab release test (FIG. 3) ([1]; at 7, 14 and 21 days, before planting): complete release; Water solubility [2]: hardly water soluble
